Read-outs that look alike come from different tables or passages of the source.
Key:
Assay in all cases: biochemical
Set-up in all cases: Reaction Biology 371-kinase panel at Km ATP, per cent enzyme activity relative to DMSO, single dose in duplicate
NEK11 = NEK11 (Homo sapiens, UniProt Q8NG66); settings: duplicate measurements, Km ATP
In short: (§1)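 Activity of each kinase, normalised to DMSO-treated controls, served as the read-out. The inhibitor was tested at 300 nM against 371 kinases in vitro. Curves fitted by variable-slope sigmoidal dose-response, constrained to a bottom of 0, gave IC50.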

P38a/MAPK14 = P38a/MAPK14 (Homo sapiens, UniProt Q16539); settings: duplicate measurements, Km ATP
In short: as §1

CLK3 = CLK3 (Homo sapiens, UniProt P49761); settings: duplicate measurements, Km ATP
In short: as §1

CDK17/cyclin Y (PCTK2) = CDK17/cyclin Y (PCTK2) (Homo sapiens, UniProt Q00537); settings: duplicate measurements, Km ATP; read-out: % Enzyme Activity (relative to DMSO controls) / TP-0005801 (0.3µM) / Data 1
In short: as §1

EPHB3 = EPHB3 (Homo sapiens, UniProt P54753); settings: duplicate measurements, Km ATP
In short: as §1

AURORA C = target: T1, AURORA C (Homo sapiens, UniProt Q9UQB9); settings: duplicate measurements, Km ATP
T1 construct: gene AURKC
In short: as §1

PAK5 = PAK5 (Homo sapiens, UniProt Q9P286); settings: duplicate measurements, Km ATP
In short: as §1

RAF1 = RAF1 (Homo sapiens, UniProt P04049); settings: duplicate measurements, Km ATP
In short: as §1

LIMK2 = LIMK2 (Homo sapiens, UniProt P53671); settings: duplicate measurements, Km ATP
In short: as §1

MEKK3 = target: T2, MEKK3 (Homo sapiens, UniProt Q99759); settings: duplicate measurements, Km ATP
T2 construct: gene MAP3K3
In short: as §1

MNK1 = target: T3, MNK1 (Homo sapiens, UniProt Q9BUB5); settings: duplicate measurements, Km ATP
T3 construct: gene MKNK1
In short: as §1

PKCtheta = target: T4, PKCtheta (Homo sapiens, UniProt Q04759); settings: duplicate measurements, Km ATP
T4 construct: gene PRKCQ
In short: as §1

HCK = HCK (Homo sapiens, UniProt P08631); settings: duplicate measurements, Km ATP
In short: as §1

CK1G3 = target: T5, CK1G3 (Homo sapiens, UniProt Q9Y6M4); settings: duplicate measurements, Km ATP
T5 construct: gene CSNK1G3
In short: as §1

STK33 = STK33 (Homo sapiens, UniProt Q9BYT3); settings: duplicate measurements, Km ATP
In short: as §1

MLCK2/MYLK2 = MLCK2/MYLK2 (Homo sapiens, UniProt Q9H1R3); settings: duplicate measurements, Km ATP
In short: as §1

FLT3 = FLT3 (Homo sapiens, UniProt P36888); settings: duplicate measurements, Km ATP
In short: as §1

EPHB2 = EPHB2 (Homo sapiens, UniProt P29323); settings: duplicate measurements, Km ATP
In short: as §1

VRK1 = VRK1 (Homo sapiens, UniProt Q99986); settings: duplicate measurements, Km ATP
In short: as §1

IKKa/CHUK = IKKa/CHUK (Homo sapiens, UniProt O15111); settings: duplicate measurements, Km ATP
In short: as §1

[1] = read-out: % Enzyme Activity (relative to DMSO controls) / TP-0005801 (0.3µM) / Data 1
[2] = read-out: % Enzyme Activity (relative to DMSO controls) / TP-0005801 (0.3µM) / Data 2

Chain of HCK (P08631 whole entry): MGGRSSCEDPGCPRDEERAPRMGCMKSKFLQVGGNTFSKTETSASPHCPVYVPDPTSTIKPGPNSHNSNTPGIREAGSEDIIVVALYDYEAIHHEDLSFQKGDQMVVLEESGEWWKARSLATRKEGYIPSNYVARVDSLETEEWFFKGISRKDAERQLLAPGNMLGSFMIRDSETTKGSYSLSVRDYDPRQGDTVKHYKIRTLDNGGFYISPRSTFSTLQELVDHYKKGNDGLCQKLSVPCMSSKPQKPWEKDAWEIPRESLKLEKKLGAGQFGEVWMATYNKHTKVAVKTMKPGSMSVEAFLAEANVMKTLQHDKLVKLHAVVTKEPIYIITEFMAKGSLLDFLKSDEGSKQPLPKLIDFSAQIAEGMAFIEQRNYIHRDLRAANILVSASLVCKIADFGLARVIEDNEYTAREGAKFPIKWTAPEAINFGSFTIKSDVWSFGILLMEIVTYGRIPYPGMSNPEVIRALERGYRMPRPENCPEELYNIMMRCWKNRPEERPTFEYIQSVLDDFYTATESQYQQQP
Chain of EPHB2 (P29323 whole entry): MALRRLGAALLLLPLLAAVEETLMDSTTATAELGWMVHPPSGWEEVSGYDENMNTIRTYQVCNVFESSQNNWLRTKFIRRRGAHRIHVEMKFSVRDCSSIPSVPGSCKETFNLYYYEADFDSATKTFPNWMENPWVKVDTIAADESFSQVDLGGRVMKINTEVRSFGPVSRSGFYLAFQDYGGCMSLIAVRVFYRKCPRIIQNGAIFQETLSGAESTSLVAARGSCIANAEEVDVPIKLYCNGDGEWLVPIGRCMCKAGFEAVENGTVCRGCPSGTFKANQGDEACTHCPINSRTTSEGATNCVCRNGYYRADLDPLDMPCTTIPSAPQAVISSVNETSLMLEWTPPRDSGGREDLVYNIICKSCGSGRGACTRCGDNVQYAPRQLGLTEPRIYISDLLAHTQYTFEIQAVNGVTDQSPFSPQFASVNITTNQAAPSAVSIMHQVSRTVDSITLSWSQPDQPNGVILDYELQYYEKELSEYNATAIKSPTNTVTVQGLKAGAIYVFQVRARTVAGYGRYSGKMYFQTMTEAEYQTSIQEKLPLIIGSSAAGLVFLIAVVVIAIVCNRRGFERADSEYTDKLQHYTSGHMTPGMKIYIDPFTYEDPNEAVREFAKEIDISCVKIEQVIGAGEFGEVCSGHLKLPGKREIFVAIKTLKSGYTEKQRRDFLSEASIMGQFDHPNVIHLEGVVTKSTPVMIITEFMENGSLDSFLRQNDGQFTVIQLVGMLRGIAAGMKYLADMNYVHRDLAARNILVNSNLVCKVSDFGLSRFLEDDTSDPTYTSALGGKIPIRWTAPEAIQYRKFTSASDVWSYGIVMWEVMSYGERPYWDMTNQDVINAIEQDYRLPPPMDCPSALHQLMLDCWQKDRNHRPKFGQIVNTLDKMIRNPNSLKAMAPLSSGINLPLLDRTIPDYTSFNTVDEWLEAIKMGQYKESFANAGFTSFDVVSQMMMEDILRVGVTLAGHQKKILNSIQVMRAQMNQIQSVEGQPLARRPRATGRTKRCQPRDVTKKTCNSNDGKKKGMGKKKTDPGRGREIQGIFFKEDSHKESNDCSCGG
Chain of RAF1 (P04049 whole entry): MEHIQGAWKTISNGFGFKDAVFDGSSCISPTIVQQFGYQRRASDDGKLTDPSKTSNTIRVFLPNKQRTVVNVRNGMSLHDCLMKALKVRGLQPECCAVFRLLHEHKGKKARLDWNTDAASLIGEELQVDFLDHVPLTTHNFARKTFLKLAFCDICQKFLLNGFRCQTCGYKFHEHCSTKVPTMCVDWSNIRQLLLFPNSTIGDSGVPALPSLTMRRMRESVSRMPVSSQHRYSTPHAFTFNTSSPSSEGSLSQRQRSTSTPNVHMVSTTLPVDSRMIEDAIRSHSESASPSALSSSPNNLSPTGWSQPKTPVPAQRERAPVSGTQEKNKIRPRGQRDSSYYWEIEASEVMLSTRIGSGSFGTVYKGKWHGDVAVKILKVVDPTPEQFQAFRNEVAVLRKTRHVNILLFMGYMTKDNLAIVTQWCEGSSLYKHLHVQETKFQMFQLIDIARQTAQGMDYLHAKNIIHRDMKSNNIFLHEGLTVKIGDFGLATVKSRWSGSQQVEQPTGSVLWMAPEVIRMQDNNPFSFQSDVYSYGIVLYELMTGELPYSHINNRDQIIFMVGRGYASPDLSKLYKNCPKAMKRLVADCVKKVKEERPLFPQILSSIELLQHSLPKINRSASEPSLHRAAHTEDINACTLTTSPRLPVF
T5 sequence (Q9Y6M4 whole entry): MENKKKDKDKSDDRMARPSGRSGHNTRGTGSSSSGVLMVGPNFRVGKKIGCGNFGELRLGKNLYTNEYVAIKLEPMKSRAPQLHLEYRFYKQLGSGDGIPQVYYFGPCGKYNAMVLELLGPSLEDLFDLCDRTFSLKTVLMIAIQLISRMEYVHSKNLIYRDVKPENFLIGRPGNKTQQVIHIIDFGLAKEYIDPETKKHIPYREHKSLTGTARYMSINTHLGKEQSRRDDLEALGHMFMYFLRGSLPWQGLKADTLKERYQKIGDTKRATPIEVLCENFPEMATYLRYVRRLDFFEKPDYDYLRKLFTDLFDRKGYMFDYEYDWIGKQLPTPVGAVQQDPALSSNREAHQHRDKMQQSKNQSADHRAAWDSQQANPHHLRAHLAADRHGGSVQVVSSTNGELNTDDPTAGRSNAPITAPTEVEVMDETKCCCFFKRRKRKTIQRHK
Chain of PAK5 (Q9P286 whole entry): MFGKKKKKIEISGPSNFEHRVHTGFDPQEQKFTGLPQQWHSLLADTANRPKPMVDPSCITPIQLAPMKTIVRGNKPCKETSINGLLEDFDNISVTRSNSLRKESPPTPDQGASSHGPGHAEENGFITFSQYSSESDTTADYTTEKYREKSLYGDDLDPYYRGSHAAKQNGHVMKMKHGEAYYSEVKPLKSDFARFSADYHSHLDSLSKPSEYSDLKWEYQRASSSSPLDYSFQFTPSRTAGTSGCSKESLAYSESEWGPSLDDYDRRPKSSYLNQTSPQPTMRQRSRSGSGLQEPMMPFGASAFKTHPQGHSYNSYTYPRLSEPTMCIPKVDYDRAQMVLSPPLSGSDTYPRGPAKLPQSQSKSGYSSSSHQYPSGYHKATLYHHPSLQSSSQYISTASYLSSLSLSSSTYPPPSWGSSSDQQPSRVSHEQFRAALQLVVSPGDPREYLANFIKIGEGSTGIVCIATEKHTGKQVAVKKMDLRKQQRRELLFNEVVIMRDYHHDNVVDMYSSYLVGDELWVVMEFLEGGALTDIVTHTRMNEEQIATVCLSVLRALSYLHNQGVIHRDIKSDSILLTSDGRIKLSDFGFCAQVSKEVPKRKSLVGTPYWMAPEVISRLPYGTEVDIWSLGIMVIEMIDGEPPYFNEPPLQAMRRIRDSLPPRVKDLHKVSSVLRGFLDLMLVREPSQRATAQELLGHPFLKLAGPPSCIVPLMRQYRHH
T2 sequence (Q99759 whole entry): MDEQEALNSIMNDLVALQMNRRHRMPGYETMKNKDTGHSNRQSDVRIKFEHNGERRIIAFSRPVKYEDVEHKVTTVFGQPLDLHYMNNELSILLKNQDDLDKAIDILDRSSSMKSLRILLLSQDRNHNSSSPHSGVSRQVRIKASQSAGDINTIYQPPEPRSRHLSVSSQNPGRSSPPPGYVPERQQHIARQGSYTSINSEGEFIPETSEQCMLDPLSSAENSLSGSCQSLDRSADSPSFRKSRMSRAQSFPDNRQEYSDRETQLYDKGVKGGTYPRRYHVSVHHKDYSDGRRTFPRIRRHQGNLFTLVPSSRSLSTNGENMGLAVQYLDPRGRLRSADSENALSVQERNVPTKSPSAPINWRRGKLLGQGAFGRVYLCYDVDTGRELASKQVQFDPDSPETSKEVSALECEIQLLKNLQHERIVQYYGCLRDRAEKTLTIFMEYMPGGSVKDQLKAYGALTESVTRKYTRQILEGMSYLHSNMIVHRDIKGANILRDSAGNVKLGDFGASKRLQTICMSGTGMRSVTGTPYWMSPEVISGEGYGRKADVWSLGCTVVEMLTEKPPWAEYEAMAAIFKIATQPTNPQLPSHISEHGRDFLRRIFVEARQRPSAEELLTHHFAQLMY
Chain of LIMK2 (P53671 whole entry): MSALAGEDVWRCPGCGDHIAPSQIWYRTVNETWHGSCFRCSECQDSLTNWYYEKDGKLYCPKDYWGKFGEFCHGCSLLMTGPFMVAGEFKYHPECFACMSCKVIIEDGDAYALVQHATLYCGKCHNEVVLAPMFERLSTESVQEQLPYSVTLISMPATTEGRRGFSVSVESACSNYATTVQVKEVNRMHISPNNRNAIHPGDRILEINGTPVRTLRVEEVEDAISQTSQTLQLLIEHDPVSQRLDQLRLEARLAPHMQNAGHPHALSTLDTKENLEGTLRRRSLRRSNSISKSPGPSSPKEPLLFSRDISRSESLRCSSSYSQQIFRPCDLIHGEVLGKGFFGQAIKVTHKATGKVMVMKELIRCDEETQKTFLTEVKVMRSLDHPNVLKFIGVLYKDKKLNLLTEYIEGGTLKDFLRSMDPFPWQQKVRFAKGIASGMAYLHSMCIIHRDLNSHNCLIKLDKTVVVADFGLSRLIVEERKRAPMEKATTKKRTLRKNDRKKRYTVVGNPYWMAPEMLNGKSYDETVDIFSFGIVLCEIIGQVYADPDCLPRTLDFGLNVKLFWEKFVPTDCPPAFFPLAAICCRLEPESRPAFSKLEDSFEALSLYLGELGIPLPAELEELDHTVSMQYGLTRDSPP
Chain of P38a/MAPK14 (Q16539 whole entry): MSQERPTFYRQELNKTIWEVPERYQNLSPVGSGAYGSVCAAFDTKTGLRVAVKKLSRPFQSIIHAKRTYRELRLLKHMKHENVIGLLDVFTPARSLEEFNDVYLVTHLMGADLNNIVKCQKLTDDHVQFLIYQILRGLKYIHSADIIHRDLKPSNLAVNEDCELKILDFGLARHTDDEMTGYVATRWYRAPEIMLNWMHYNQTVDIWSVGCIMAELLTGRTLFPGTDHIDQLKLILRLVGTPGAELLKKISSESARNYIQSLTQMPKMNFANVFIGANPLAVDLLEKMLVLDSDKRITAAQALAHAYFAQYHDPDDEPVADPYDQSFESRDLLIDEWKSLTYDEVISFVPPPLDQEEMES

COc1cc(N2CCN(C)CC2)c(C)cc1Nc1ncc(Br)c(Nc2cccnc2N(C)C)n1 [TP-5801]
remaining activity at 0.3 µM (NEK11; [1]): 99.3%
remaining activity at 0.3 µM (NEK11; [2]): 94.5%
remaining activity at 0.3 µM (P38a/MAPK14; [1]): 89%
remaining activity at 0.3 µM (P38a/MAPK14; [2]): 88.1%
remaining activity at 0.3 µM (CLK3; [1]): 79.1%
remaining activity at 0.3 µM (CLK3; [2]): 77.3%
remaining activity at 0.3 µM (CDK17/cyclin Y (PCTK2)): 101%
remaining activity at 0.3 µM (EPHB3; [1]): 104%
remaining activity at 0.3 µM (EPHB3; [2]): 102%
remaining activity at 0.3 µM (AURORA C; [1]): 97%
remaining activity at 0.3 µM (AURORA C; [2]): 92.9%
remaining activity at 0.3 µM (PAK5; [1]): 86.5%
remaining activity at 0.3 µM (PAK5; [2]): 85.3%
remaining activity at 0.3 µM (RAF1; [1]): 90.8%
remaining activity at 0.3 µM (RAF1; [2]): 90.2%
remaining activity at 0.3 µM (LIMK2; [1]): 114%
remaining activity at 0.3 µM (LIMK2; [2]): 108%
remaining activity at 0.3 µM (MEKK3; [1]): 92.4%
remaining activity at 0.3 µM (MEKK3; [2]): 88.5%
remaining activity at 0.3 µM (MNK1; [1]): 92.5%
remaining activity at 0.3 µM (MNK1; [2]): 90.8%
remaining activity at 0.3 µM (PKCtheta; [1]): 91.3%
remaining activity at 0.3 µM (PKCtheta; [2]): 90.3%
remaining activity at 0.3 µM (HCK; [1]): 105%
remaining activity at 0.3 µM (HCK; [2]): 102%
remaining activity at 0.3 µM (CK1G3; [1]): 94.7%
remaining activity at 0.3 µM (CK1G3; [2]): 93.6%
remaining activity at 0.3 µM (STK33; [1]): 32.4%
remaining activity at 0.3 µM (STK33; [2]): 31.5%
remaining activity at 0.3 µM (MLCK2/MYLK2; [1]): 104%
remaining activity at 0.3 µM (MLCK2/MYLK2; [2]): 100%
remaining activity at 0.3 µM (FLT3; [1]): 3.9%
remaining activity at 0.3 µM (FLT3; [2]): 3.79%
remaining activity at 0.3 µM (EPHB2; [1]): 86.4%
remaining activity at 0.3 µM (EPHB2; [2]): 85.6%
remaining activity at 0.3 µM (VRK1; [1]): 92.2%
remaining activity at 0.3 µM (VRK1; [2]): 91.6%
remaining activity at 0.3 µM (IKKa/CHUK; [1]): 99.5%
remaining activity at 0.3 µM (IKKa/CHUK; [2]): 94.3%
